{"source": "patent US10167507B2", "about": "“Metabolic diseases-related odorant receptor genes and use thereof” (INDUSTRY-ACADEMIC COOPERATION FOUNDATION, YONSEI UNIVERSITY, priority 2010, dated 2019)", "key": {"[1]": {"test_system": "olfactory receptors in visceral fat tissue", "experiment": "OligoDNA microarray, visceral fat tissue of HFD mice fed odor components", "format": "in vivo, mouse", "settings": "supplemented to HFD-fed mouse 10 weeks", "quoted_text": "DNA microarry analysis using RNAs of visceral fat and liver tissue was conducted by GENOCHECK (CO., LTD.). RNA samples were pooled from 10 mice in each experimental group and subjected to microarray experiments in triplicate for the test of reproducibility. NimbleGen Mouse Whole Oligo 12-plex chip used in this experiment was prepared by triplicating 42,576 genes using Mouse Genome Build 8 as database. In NimbleGen mouse Whole Oligo 12-plex chip, 137,090 spots excluded control group gene were spotted by 16 μm×16 μm size in 17.4 mm×13 mm size. 42,576 oligo included 137,145 genes which are known their functions and 5,431 transcripts and EST sequences which are unknown their functions. 10-50 μg of total RNA was added in oligo-dT primer, reverse transcriptase, dNTP, Cy3-dUTP and Cy5-dUTP, and reverse-transcripted according to the kit manufacturer's recommendations. The resultant was purified using cartridge, dried and dissolved in hybridization buffer solution (30 μL). The microarray was placed in hybridization cassette, heated at 95-100° C. for 5 min, mixed independently to each of RNA labeled with Cy3 and Cy5, and hybridized at 45° C. for 18 hrs. The slide was washed twice in solution containing 1×SSC and 0.1% SDS for 5 min, washed in 1×SSC for 5 min and dried to analyze."}, "[2]": {"test_system": "AKT (v-akt murine thymoma viral oncogene)", "experiment": "Western blotting, protein phosphorylation of AKT", "format": "in vivo, mouse", "settings": "odor component-supplemented group to the HFD control group", "quoted_text": "(§6) A certain amount of visceral fat or liver tissues in mortar was homogenized with liquid nitrogen and cell lysis buffer. The mixture was transferred to a new tube, followed by vortexing. After centrifugation at 13,000×g for 20 min at 4° C., the middle layer of the tube was obtained and proteins were quantified by Bradford method. 50 μg of protein was electrophorized to SDS polyacrylamide gel, followed by electroblotting to PVDF hyper film. The protein was reacted using an appropriate antibody for the protein and detected by ECL, whereby insulin resistance, adipocyte differentiation, lipid metabolism or energy consumption-related mechanism of phytochemical components was investigated in the protein level.\n(§7) In order to verify this, protein phosphorylations of HSL (hormone sensitive lipase), CREB (cAMP-responsive element binding protein) and AKT (v-akt murine thymoma viral oncogene) were evaluated by western blotting analysis."}, "[3]": {"test_system": "CREB (cAMP-responsive element binding protein)", "experiment": "Western blotting, protein phosphorylation of CREB", "format": "in vivo, mouse", "settings": "odor component-supplemented group to the HFD control group", "quoted_text": "as §6, §7"}, "[4]": {"test_system": "olfactory receptors in liver tissue", "experiment": "OligoDNA microarray, liver tissue of HFD mice fed odor components", "format": "in vivo, mouse", "settings": "supplemented to HFD-fed mouse 10 weeks", "text": "(§1) The obesity-inducing control diet used in the test was high-fat diet (HFD: 40% fat calorie, 17 g lard+3% corn oil/100 g diet). Diets supplemented with an odor component had the same composition as HFD, except that each of various types of odor components (indol-3-carbinol, oleuropein, cedryl acetate, α-cedrene and piperine) having anti-obesity efficacy was contained in 0.02-0.05% concentration. Indo)-3-carbinol, oleuropein, cedryl acetate, a-cedrene and piperine were purchased from Sigma-Aldrich.\n(§2) After adding Trizol agent to visceral fat or liver tissue, the mixture was homogenized and centrifuged at 12,000×g for 10 min at 4° C. The supernatant was transferred to a new tube to remove fat layer. Then, 200 μl of chloroform was added to the tube, followed by vortexing. The same procedure was repeated twice and then the supernatant was transferred to a new tube, followed by addition of isopropanol and the supernatant at 1:1 ratio. The mixture was vigorously shaken 10 times and then incubated for 10 min at room temperature, followed by centrifugation at 12,000×g for 10 min at 4° C. to remove the supernatant. After adding 1 mL of 70% ethanol to the remaining pellet, it was centrifuged at 7,500×g for 5 min at 4° C. After removing the ethanol, the RNA pellet contained in the tube was dried for 5 min at 4° C. and dissolved in nuclease-free water. The RNA sample concentration was measured at a wavelength of 260 nm and 280 nm using a UV/VIS spectrophotometer (Beckman coulter, DU730) and the integrity of RNA sample was verified by agarose gel electrophoresis.\n(§3) DNA microarry analysis using RNAs of visceral fat and liver tissue was conducted by GENOCHECK (CO., LTD.). RNA samples were pooled from 10 mice in each experimental group and subjected to microarray experiments in triplicate for the test of reproducibility. NimbleGen Mouse Whole Oligo 12-plex chip used in this experiment was prepared by triplicating 42,576 genes using Mouse Genome Build 8 as database. In NimbleGen mouse Whole Oligo 12-plex chip, 137,090 spots excluded control group gene were spotted by 16 μm×16 μm size in 17.4 mm×13 mm size. 42,576 oligo included […] genes which are known their functions and 5,431 transcripts and EST sequences which are unknown their functions. 10-50 μg of total RNA was added in oligo-dT primer, reverse transcriptase, dNTP, Cy3-dUTP and Cy5-dUTP, and reverse-transcripted according to the kit manufacturer's recommendations. The resultant was purified using cartridge, dried and dissolved in hybridization buffer solution (30 μL). The microarray was placed in hybridization cassette, heated at 95-100° C. for 5 min, mixed independently to each of RNA labeled with Cy3 and Cy5, and hybridized at 45° C. for 18 hrs. The slide was washed twice in solution containing 1×SSC and 0.1% SDS for 5 min, washed in 1×SSC for 5 min and dried to analyze.\n(§4) The profile for olfactory receptors in which the expression was regulated by more than 2-fold change due to intake of odor components at each tissue was shown in Tables 5. As a result, it was determined that various types of odor components having anti-obesity efficacy regulated a plurality of olfactory receptors in peripheral tissues."}, "[5]": {"test_system": "olfactory receptors in visceral fat and liver tissues", "experiment": "OligoDNA microarray, visceral fat and liver tissues of HFD mice fed odor components (tissue not separated in text)", "format": "in vivo", "settings": "supplemented to mouse fed high-fat diet for 10 weeks", "text": "as §1, §2, §3, §4"}, "[6]": {"test_system": "obesity and metabolic diseases-related genes in visceral fat tissue", "experiment": "RT-PCR of obesity and metabolic diseases-related genes, visceral fat tissue", "format": "in vivo, mouse", "settings": "odor component-supplemented group to the HFD control group", "experimental": "(§5) After adding 1 mL of Trizol agent (Invitrogen, USA) per 0.1 g of visceral fat or liver tissues, the mixture was homogenized and centrifuged at 12,000×g for 10 min at 4° C. The supernatant was transferred to a new tube and 200 μl of chloroform was added to the tube, followed by vortexing. The same procedure was repeated twice and then the supernatant was transferred to a new tube, followed by addition of isopropanol and the supernatant at 1:1 ratio. The mixture was vigorously shaken 10 times and then incubated for 10 min at room temperature, followed by centrifugation at 12,000×g for 10 min at 4° C. to remove the supernatant. After adding 1 mL of 70% ethanol to the remaining pellet, it was centrifuged at 7,500×g for 5 min at 4° C. After removing the ethanol, the RNA pellet contained in the tube was dried for 5 min at 4° C. and dissolved in nuclease-free water. The RNA sample concentration was measured at a wavelength of 260 nm and 280 nm using a UV/VIS spectrophotometer (Beckman coulter, DU730) and the integrity of RNA sample was verified by agarose gel electrophoresis. The RNA sample obtained from the visceral fat or liver tissues was trasnscribed using oligo dT primer and reverse transcriptase (GIBCO BRL, Gaithersburg, Md., USA) to synthesize cDNA. The PCR amplification was performed using the cDNA as templates and primers complementary to cDNA [NT] flanking sequence. 1 μl of the amplified products were resolved on agarose gel electrophoresis to verify DNA band."}, "[7]": {"test_system": "obesity and metabolic diseases-related genes in liver tissue", "experiment": "RT-PCR of obesity and metabolic diseases-related genes, liver tissue", "format": "in vivo, mouse", "settings": "odor component-supplemented group to the HFD control group", "experimental": "as §5"}, "[8]": {"test_system": "HSL (hormone sensitive lipase)", "experiment": "Western blotting, protein phosphorylation of HSL", "format": "in vivo, mouse", "settings": "odor component-supplemented group to the HFD control group", "quoted_text": "as §6, §7"}}}
{"molecule": "C/C=C1/[C@H](O[C@@H]2O[C@H](CO)[C@@H](O)[C@H](O)[C@H]2O)OC=C(C(=O)OC)[C@H]1CC(=O)OCCc1ccc(O)c(O)c1", "note": "[oleuropein]", "values": [{"measurement": "Olfr290 expression fold change to HFD group", "setting": "[1]", "value": 2.32}, {"measurement": "Olfr341 expression fold change to HFD group", "setting": "[1]", "value": 0.3}, {"measurement": "Olfr495 expression fold change to HFD group", "setting": "[1]", "value": 0.21}, {"measurement": "Olfr520 expression fold change to HFD group", "setting": "[1]", "value": 2.08}, {"measurement": "Olfr907 expression fold change to HFD group", "setting": "[1]", "value": 0.49}, {"measurement": "Olfr971 expression fold change to HFD group", "setting": "[1]", "value": 2.37}, {"measurement": "Olfr1046 expression fold change to HFD group", "setting": "[1]", "value": 2.01}, {"measurement": "Olfr1104 expression fold change to HFD group", "setting": "[1]", "value": 4.39}, {"measurement": "Olfr1447 expression fold change to HFD group", "setting": "[1]", "value": 2.33}, {"measurement": "Olfr341 expression fold change to HFD group", "setting": "[1]; listed as Oleuropein", "value": 0.30}, {"measurement": "AKT phosphorylation, increase (change rate)", "setting": "[2]", "value": 59, "unit": "% increase"}, {"measurement": "CREB phosphorylation, increase (change rate)", "setting": "[3]", "value": 60, "unit": "% increase"}, {"measurement": "Olfr38 expression fold change to HFD group", "setting": "[4]", "value": 2.35}, {"measurement": "Olfr275 expression fold change to HFD group", "setting": "[4]", "value": 2.49}, {"measurement": "Olfr1136 expression fold change to HFD group", "setting": "[4]", "value": 0.49}, {"measurement": "Olfr1204 expression fold change to HFD group", "setting": "[4]", "value": 2.21}, {"measurement": "Olfr1214 expression fold change to HFD group", "setting": "[4]", "value": 2.17}, {"measurement": "Olfr1317 expression fold change to HFD group", "setting": "[4]", "value": 2.89}, {"measurement": "expression of olfactory receptor 38 increased", "setting": "[5]", "value": "more than 2 fold change"}, {"measurement": "expression of olfactory receptor 275 increased", "setting": "[5]", "value": "more than 2 fold change"}, {"measurement": "expression of olfactory receptor 290 increased", "setting": "[5]", "value": "more than 2 fold change"}, {"measurement": "expression of olfactory receptor 341 decreased", "setting": "[5]", "value": "more than 2 fold change"}, {"measurement": "expression of olfactory receptor 495 decreased", "setting": "[5]", "value": "more than 2 fold change"}, {"measurement": "expression of olfactory receptor 520 increased", "setting": "[5]", "value": "more than 2 fold change"}, {"measurement": "expression of olfactory receptor 907 decreased", "setting": "[5]", "value": "more than 2 fold change"}, {"measurement": "expression of olfactory receptor 971 increased", "setting": "[5]", "value": "more than 2 fold change"}, {"measurement": "expression of olfactory receptor 1046 increased", "setting": "[5]", "value": "more than 2 fold change"}, {"measurement": "expression of olfactory receptor 1104 increased", "setting": "[5]", "value": "more than 2 fold change"}, {"measurement": "expression of olfactory receptor 1136 decreased", "setting": "[5]", "value": "more than 2 fold change"}, {"measurement": "expression of olfactory receptor 1204 increased", "setting": "[5]", "value": "more than 2 fold change"}, {"measurement": "expression of olfactory receptor 1214 increased", "setting": "[5]", "value": "more than 2 fold change"}, {"measurement": "expression of olfactory receptor 1317 increased", "setting": "[5]", "value": "more than 2 fold change"}, {"measurement": "expression of olfactory receptor 1447 increased", "setting": "[5]", "value": "more than 2 fold change"}, {"measurement": "C/EBPα gene expression, decrease (change rate)", "setting": "[6]", "value": 22, "unit": "% decrease"}, {"measurement": "CPT1 gene expression, increase (change rate)", "setting": "[6]", "value": 50, "unit": "% increase^"}, {"measurement": "FAS gene expression, decrease (change rate)", "setting": "[6]", "value": 65, "unit": "decrease %"}, {"measurement": "IL-6 gene expression, decrease (change rate)", "setting": "[6]", "value": 78, "unit": "% decrease"}, {"measurement": "PGC1α gene expression, increase (change rate)", "setting": "[6]", "value": 210, "unit": "% increase ^"}, {"measurement": "PPARγ2 gene expression, decrease (change rate)", "setting": "[6]", "value": 35, "unit": "% decrease"}, {"measurement": "SIRT1 gene expression, increase (change rate)", "setting": "[6]", "value": 98, "unit": "% increase^"}, {"measurement": "TNFα gene expression, decrease (change rate)", "setting": "[6]", "value": 66, "unit": "% decrease"}, {"measurement": "UCP1 gene expression, increase (change rate)", "setting": "[6]", "value": 450, "unit": "% increase ^"}, {"measurement": "UCP3 gene expression, increase (change rate)", "setting": "[6]", "value": 82, "unit": "% increase^"}, {"measurement": "aP2 gene expression, decrease (change rate)", "setting": "[6]", "value": 26, "unit": "% decrease"}, {"measurement": "C/EBPα gene expression, decrease (change rate)", "setting": "[7]", "value": 16, "unit": "% decrease"}, {"measurement": "CPT1 gene expression, increase (change rate)", "setting": "[7]", "value": 33, "unit": "% increase^"}, {"measurement": "FAS gene expression, decrease (change rate)", "setting": "[7]", "value": 40, "unit": "% decrease"}, {"measurement": "IL-6 gene expression, decrease (change rate)", "setting": "[7]", "value": 62, "unit": "% decrease"}, {"measurement": "PPARγ2 gene expression, decrease (change rate)", "setting": "[7]", "value": 94, "unit": "% decrease"}, {"measurement": "TNFα gene expression, decrease (change rate)", "setting": "[7]", "value": 60, "unit": "% decrease"}, {"measurement": "aP2 gene expression, decrease (change rate)", "setting": "[7]", "value": 29, "unit": "% decrease"}, {"measurement": "HSL phosphorylation, increase (change rate)", "setting": "[8]", "value": 52, "unit": "% increase"}]}
